One assay concerns ApoE expression. Put plainly: ApoE expression by qRT-PCR in human melanoma cells. Background: In qPCR the cycle at which signal appears reflects the starting amount.
The next assay deals with ApoE promoter. Kind of assay: ApoE promoter activity assay (luciferase, ME.1/ME.2). Format: cell-based, human. To be noted: 1 μM. The text has this: FIG. 11. LXRβ Activation Suppresses Melanoma Invasion and Endothelial Recruitment by Transcriptionally Enhancing Melanoma-Cell ApoE Expression. […] Scale bar, 50 μm.
The ApoE promoter, consisting of a sequence spanning 980 base pairs upstream and 93 base pairs downstream of the ApoEgene, was cloned into a pGL3-Basic vector (E1751, Promega Corporation, Madison, Wis.) upstream of the firefly luciferase gene using NheI and SacI restriction enzymes. Then, multi-enhancer elements 1 (ME.1) and 2 (ME.2) were cloned directly upstream of the ApoE promoter using MluI and […] restriction enzymes. To assess ApoE promoter- and ME.1/ME.2-driven transcriptional activation by LXR agonists, 5×10^4 MeWo cells were seeded into a 24-well plate. […] To assess transcriptional activation by LXRα or LXRβ, 5×10^4 MeWo cells expressing a control shRNA or shRNA targeting LXRα or LXRβ were seeded into a 24-well plate. […] After 24 hours, cells were lysed, and cell lysate was analyzed for firefly and renilla luciferase activity using the Dual Luciferase Assay System (E1960, Promega) and a Bio-Tek Synergy NEO Microplate Reader. Firefly luciferase signal was normalized to renilla luciferase signal and all data are expressed relative to the luciferase activity ratio measured in the DMSO-treated control cells.

The subject of assay [1] is B16F10 mouse melanoma cells. Put plainly: Subcutaneous B16F10 tumor growth in C57BL/6 mice. The class given is in vivo. Particulars: for melanoma primary tumor growth in vivo (B16F10): chow, WO-2010-0138598 Ex. 9 10 or 100 mg/kg/day, SB742881 100 mg/kg/day. On the procedure: FIG. 4. Therapeutic LXR Activation Inhibits Melanoma Tumor Growth. […] Representative tumor images shown correspond to tumors extracted at the final day (d12). n=10-18 (A), 8-10 (B). (C-E) Primary tumor growth by 1×10^6 MeWo (C), […] SK-Mel-334.2 (D), and 2×10^6 SK-Mel-2 (E) human melanoma cells subcutaneously injected into immunocompromised mice. […] Tumor images shown correspond to last day of measurements. n=6-34 (C), 8 (D), 5 (E). (F) 5×10^4 B16F10 cells were injected subcutaneously into C57BL/6-WT mice. Upon tumor growth to 150 mm^3, mice were fed continuously with a control chow or a chow containing GW3965 (150 mg/kg), and tumor growth was measured daily. n=6-13. […] Tumor volume was calculated as (small diameter)^2×(large diameter)/2. […] Scale bars, 5 mm (A-D), 50 μm (J, K), 25 μm (L).
The mice were palpated daily for tumor formation and after detection of tumors measuring […] in volume, the mice were assigned to a control chow or a chow containing each respective LXR agonist: LXR-623 (20 mg/kg/day), WO-2007-002563 Ex. 19 (100 mg/kg/day), WO-2010-0138598 Ex. 9 (10 mg/kg/day or 100 mg/kg/day), or SB742881 (100 mg/kg/day). The LXR drug compounds were formulated in the mouse chow by Research Diets, Inc. Tumor dimensions were measured using digital calipers, and tumor volume was calculated as (small diameter)^2×(large diameter)/2.

Assay [2] has as its system MeWo, HT-144, SK-Mel-2, SK-Mel-334.2 human melanoma cells. Put plainly: Cell invasion assay (trans-well matrigel). Format: cell-based. To be noted: 1 μM, 72 hours; for inhibiting cancer progression phenotypes (cell invasion, endothelial recruitment): MeWo cells, versus lower potency LXR agonists. The text has this:
FIG. 2. Activation of LXRβ Signaling Suppresses Melanoma Cell Invasion and Endothelial Recruitment. (A) Heat-map depicting microarray-based expression levels of LXR and RXR isoforms in the NCI-60 melanoma cell line collection. The heat map for these genes is extracted from the larger nuclear hormone receptor family heat map (FIG. 3). Color-map key indicates the change in standard deviations for the expression value of each receptor relative to the average expression value of all microarray-profiled genes (>39,000 transcript variants) in each cell line. (B) Cell invasion by 1×10^5 MeWo, 5×10^4 HT-144, 5×10^5 SK-Mel-2, and 5×10^4 SK-Mel-334.2 human melanoma cells. Cells were treated with DMSO, GW3965, T0901317, or Bexarotene at 1 μM for 72 hours and subjected to a trans-well matrigel invasion assay. n=4-8. (C) 5×10^4 MeWo, HT-144, SK-Mel-2, and SK-Mel-334.2 human melanoma cells were tested for their ability to recruit 1×10^5 endothelial cells in a trans-well migration assay, following treatment of the melanoma cells with DMSO, GW3965, T0901317, or Bexarotene at 1 μM for 72 hours. n=4-8. […] Scale bar, 50 μm. *p<0.05, **p<0.01, ***p<0.001, ****p<0.0001.
The cell invasion assay was performed as previously described in detail (Pencheva et al., 2012) using a trans-well matrigel invasion chamber system (354480, BD Biosciences). In brief, various melanoma cells were cultured in the presence of DMSO, GW3965, T0901317, or Bexarotene at 1 μM for 56 hours, after which melanoma cells were switched to starvation media (0.2% FBS) for 16 hours in the presence of each drug. Following starvation, cells were seeded into matrigel-coated trans-well inserts, and the invasion assay was allowed to proceed for 24 hours at […]. For ApoE antibody neutralization experiments, 40 μg/mL 1 D7 anti-ApoE blocking antibody (Heart Institute, University of Ottawa, Ottawa, Canada) or […] anti-IgG control antibody (AB-108-C, R&D Systems, Minneapolis, Minn.) was added to each trans-well insert at the start of the assay.
The cells were then serum starved for 16 hours in 0.2% FBS media in the presence of each corresponding drug or DMSO. Following serum starvation, the cells were subjected to the trans-well invasion assay using a matrigel invasion chamber system (354480, BD Biosciences). Invasion chambers were pre-equilibrated prior to the assay by adding 0.5 mL of starvation media to the top and bottom wells. Meanwhile, cancer cells were trypsinized and viable cells were counted using trypan blue. Cancer cells were then resuspended at a concentration of 2×10^5 cells/1 mL starvation media, and 0.5 mL of cell suspension, containing 1×10^5 cells, was seeded into each trans-well. The invasion assay was allowed to proceed for 24 hours at 37° C. […] Following fixation, the inserts were washed in PBS, cut out, and mounted onto slides using VectaShield mounting medium containing DAPI nuclear stain (H-1000, Vector Laboratories). The basal side of each insert was imaged using an inverted fluorescence microscope (Zeiss Axiovert 40 CFL) at 5× magnification, and the number of DAPI-positive cells was quantified using ImageJ.

For a further assay, the target named is T1, LXRα (Homo sapiens, UniProt Q13133).
T1 sequence (Q13133 1-447): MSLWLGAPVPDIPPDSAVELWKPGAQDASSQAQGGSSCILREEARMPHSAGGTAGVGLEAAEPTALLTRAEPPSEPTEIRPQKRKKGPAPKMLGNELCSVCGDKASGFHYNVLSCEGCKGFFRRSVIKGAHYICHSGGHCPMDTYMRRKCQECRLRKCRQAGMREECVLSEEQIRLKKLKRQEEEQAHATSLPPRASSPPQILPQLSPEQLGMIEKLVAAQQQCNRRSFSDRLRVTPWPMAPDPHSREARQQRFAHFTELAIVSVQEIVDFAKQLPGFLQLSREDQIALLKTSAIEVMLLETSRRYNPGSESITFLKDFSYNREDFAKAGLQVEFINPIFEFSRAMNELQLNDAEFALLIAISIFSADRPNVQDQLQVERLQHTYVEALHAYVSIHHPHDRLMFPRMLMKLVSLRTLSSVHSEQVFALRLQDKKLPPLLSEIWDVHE
To be noted: cited from earlier work.

SMILES strings stand for the structures. pEC50: −log10 of the molar value.

Procedure for ApoE expression: (A-B) Parental MeWo cells were incubated in the presence of DMSO or GW3965 at the indicated concentrations. After 48 hours, total RNA was extracted, and the levels of ApoE (A) and DNAJA4 (B) were determined by qRT-PCR. n=3. (C) Cell invasion by 1×10^5 parental MeWo cells pre-treated with GW3965 or DMSO for 48 hours. n=6-7. p-values based on a one-sided student's t-test. […] (D) Endothelial recruitment by 5×10^4 parental MeWo cells pre-treated with GW3965 or DMSO for 48 hours. n=6-7. p-values based on a one-sided student's t-test. (E) Mice were fed with grain-based chow diet containing GW3965 (20 mg/kg) or a control diet. After 10 days, 4×10^4 parental MeWo cells were tail-vein injected into mice, and the mice were continuously fed with GW3965-containing chow or a control diet throughout the experiment.
(A-C) MeWo (A), HT-144 (B), and WM-266-4 (C) human melanoma cells were treated with GW3965 or T0901317 at the indicated concentrations for 48 hours, and the expression levels of ApoE were analysed by qRT-PCR. n=3. (D) Extracellular ApoE protein levels, quantified by ELISA, in serum-free conditioned media collected from HT-144 human melanoma cells treated with DMSO, GW3965, or T0901317 at 1 μM for 72 hours. n=3-4. […] (I-J) Relative ApoE expression, quantified by qRT-PCR, in MeWo (I) and HT-144 (J) cells transduced with a control shRNA or shRNAs targeting LXRα or LXRβ and subsequently treated with DMSO, GW3965, or T0901317 at 1 μM for 48 hours. n=3-9. (K) Extracellular ApoE protein levels, measured by ELISA, in serum-free conditioned media harvested from HT-144 cells transduced with a control shRNA or an shRNA targeting LXRα or LXRβ and treated with DMSO or GW3965 at 1 μM for 72 hours. n=3.
RNA was extracted from whole cell lysates using the Total RNA Purification Kit (17200, Norgen, Thorold, Canada). 600 ng of total RNA was then reverse transcribed into cDNA using the cDNA First-Strand Synthesis Kit (18080-051, Invitrogen), and quantitative real-time PCR amplification was performed as previously described (Pencheva et al., 2012) using an ABI Prism 7900HT Real-Time PCR System (Applied Biosystems, Austin, Tex.). […]
For every sample, 600 ng of RNA was reverse transcribed into cDNA using the cDNA First-Strand Synthesis kit (Invitrogen). […] Each reaction was carried out in quadruplicates, and ApoE mRNA expression levels were measured by quantitative real-time PCR amplification using an ABI Prism 7900HT Real-Time PCR System (Applied Biosystems). The relative ApoE expression was determined using the ΔΔCt method.

For the molecule `O=S(=O)(c1ccccc1)N(CC(F)(F)F)c1ccc(C(O)(C(F)(F)F)C(F)(F)F)cc1` [TO901317 110], in the assay with ApoE expression, the “potency of inducing ApoE expression in vitro” value (“potency” below) is on record as “potently induce”. Moreover, the “ability to upregulate ApoE transcription and protein expression upon melanoma cell depletion of LXRβ, but not LXRα” value in the assay with ApoE promoter is “abrogated”. Moreover, the “primary tumor growth in vivo (FIG. 4)” value in assay [1] (mouse, in vivo) is on record as “inhibit”. Also, the “ability to suppress invasion and endothelial recruitment upon knockdown of melanoma LXRβ, but not LXRα” value in assay [2] (MeWo, HT-144) is on record as “abrogated”.
Consider `CC(C)(O)c1cn(-c2ccc(-c3cccc(S(C)(=O)=O)c3)cc2)c(C(C)(C)c2ccccc2Cl)n1` [Compound 113], for which, at LXRα, the pEC50 is 6.00 to 7.00.
As for `CC(C)(O)c1cn(-c2ccc(-c3cc(F)c(CO)c(S(C)(=O)=O)c3)cc2F)c(C(C)(C)c2c(Cl)cccc2Cl)n1` [Compound 112], in the assay on ApoE expression, the “potency” value is on record as “potently induce”. The “melanoma primary tumor growth in vivo (B16F10)” value in assay [1] is given as “significantly inhibited”. In addition, the “inhibiting cancer progression phenotypes (cell invasion, endothelial recruitment)” value in assay [2] is listed as “more effective”.
On to `CC(CCOc1cccc(CC(=O)O)c1)N(Cc1cccc(C(F)(F)F)c1Cl)CC(c1ccccc1)c1ccccc1` (centres unmarked) [SB742881 109], for which the “potency” value in the assay on ApoE expression was “potently induce”. In addition, the “melanoma primary tumor growth in vivo (B16F10)” value in assay [1] is listed as “significantly inhibited”. In addition, in assay [2], the “inhibiting cancer progression phenotypes (cell invasion, endothelial recruitment)” value is “more effective”.

The pEC50 is the EC50 on a negative log10 scale, so that one unit is a factor of ten.

(Values after patent US20190125745A1, “TREATMENT AND DIAGNOSIS OF CANCER” (Rgenix, Inc., priority 2014, published 2019).)
